Numbers after ± are expanded uncertainties.
Details: Liquid
[1] = 312.59 K, Closed cell (Static) method

**Q.** With `C=CCC` [1-butene] as the molecule, how does the “vapor or sublimation pressure” value [1] read?
**A.** Its value is 448.3 ± 3.2 kPa.

**Q.** Which “vapor or sublimation pressure” value (312.83 K, Ebulliometric method (Recirculating still)) does the source give for `CCOC(C)(C)C` [2-ethoxy-2-methylpropane] here?
**A.** Its value is 30.95 ± 0.33 kPa.

**Q.** What about the “vapor or sublimation pressure” value (312.84 K, Closed cell (Static) method) of the same molecule?
**A.** The value was 31.9 ± 2.8 kPa.

**Q.** What about the “vapor or sublimation pressure” value (330.44 K, Ebulliometric method (Recirculating still)) of the same molecule?
**A.** The value was 60.25 ± 0.34 kPa.

**Q.** And the “vapor or sublimation pressure” value (338.77 K, Ebulliometric method (Recirculating still))?
**A.** Its value is 80.14 ± 0.38 kPa.

**Q.** And the “vapor or sublimation pressure” value (343.01 K, Ebulliometric method (Recirculating still))?
**A.** Its value is 92 ± 0.42 kPa.

**Q.** What about the “vapor or sublimation pressure” value (346.26 K, Ebulliometric method (Recirculating still)) of the same molecule?
**A.** The value was 102.08 ± 0.43 kPa.

**Q.** And the “vapor or sublimation pressure” value (358.31 K, Closed cell (Static) method)?
**A.** The value was 147.9 ± 2.8 kPa.

**Q.** For `CC(C)C` [2-methylpropane], which “vapor or sublimation pressure” value (307.79 K, Closed cell (Static) method) is on record?
**A.** The value was 460.8 ± 3.2 kPa.

**Q.** Which “vapor or sublimation pressure” value [1] does the source give for `C=C(C)C` [2-methylpropene] here?
**A.** Its value is 467.1 ± 3.2 kPa.

**Q.** For `CCCC` [butane], which “vapor or sublimation pressure” value (322.01 K, Closed cell (Static) method) is on record?
**A.** The value was 479.5 ± 3.2 kPa.

**Q.** What does the source list for `CCC#N` [propanenitrile]?
**A.** vapor or sublimation pressure (307.78 K, Closed cell (Static) method): 9.47 ± 2.8 kPa; vapor or sublimation pressure (312.5 K, Closed cell (Static) method): 11.9 ± 2.8 kPa; vapor or sublimation pressure (312.58 K, Closed cell (Static) method): 11.9 ± 2.8 kPa; vapor or sublimation pressure (313.15 K, Closed cell (Static) method): 12.5 ± 2.8 kPa; vapor or sublimation pressure (313.15 K, Ebulliometric method (Recirculating still)): 12.72 ± 0.29 kPa; vapor or sublimation pressure (322 K, Closed cell (Static) method): 17.4 ± 2.8 kPa; vapor or sublimation pressure (339.57 K, Ebulliometric method (Recirculating still)): 36.51 ± 0.3 kPa; vapor or sublimation pressure (353.83 K, Ebulliometric method (Recirculating still)): 60.04 ± 0.33 kPa; vapor or sublimation pressure (358.33 K, Closed cell (Static) method): 69.6 ± 2.8 kPa; vapor or sublimation pressure (358.37 K, Ebulliometric method (Recirculating still)): 69.81 ± 0.36 kPa; vapor or sublimation pressure (364.8 K, Ebulliometric method (Recirculating still)): 85.5 ± 0.39 kPa; vapor or sublimation pressure (370.9 K, Ebulliometric method (Recirculating still)): 103.12 ± 0.4 kPa
